Laboratory results from patent US20250353891A1 (MEDIMMUNE LIMITED, priority 2022, published 2025).
Values joined by “and” are separate entries in the source; they are usually repeats but may differ in a detail not shown here. Identical values can stand only once. Values belong to the molecule of their own block, whether it stands above or below them. Starred links: 1 amine or outer side, 2 acyl side, 3 side chain; linkers in the order of their positions; H or OH if unused. Non-standard residues stand in square brackets, D forms with d. Residues, ends and D or L forms follow the SMILES beside them. Groups on a side chain read outwards from the residue. *: point of attachment. C18 diacid = O=C(O)CCCCCCCCCCCCCCCCC(=O)*; γGlu = O=C(O)[C@H](CCC(=O)[*:2])N[*:1]; αMeF = C[C@](N)(Cc1ccccc1)C(=O)O; AEEA = NCCOCCOCC(=O)O; Aib = CC(C)(N)C(=O)O

Key:
[1] = Mouse acute food intake study; assay type: in vivo; details: male C57Bl/6 mice, s.c., cumulative food intake at 24 hr vs vehicle
Method in brief: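 Single-housed male C57Bl/6 mice (8-9 weeks on arrival), chow-fed, acclimated and sham-dosed ≥2 times, were fasted 6-8 h, then given vehicle or peptide subcutaneously at 5 mL/kg 1-2 h before lights out. Food intake was recorded automatically over 48 h and analysed as cumulative intake.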

[2] = system: GLP-1R knockout (KO) mice; assay: Glucose change in GLP-1R knockout mice; assay type: in vivo, mouse; details: GLP-1R KO mice, s.c., 120 min vs 0 min, somatostatin pretreatment (octreotide) 30 min prior to cpd
Method in brief: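 GLP-1R knockout mice (n=4-8/group, sorted by body weight) were fasted 2 h, and in some studies pretreated with octreotide 10 mg/kg 30 min before peptide injection. Mice were reused up to 3 times with at least 1-week wash-out.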

wildtype (WT) mice = assay: Glucose change in wildtype mice; assay type: in vivo, mouse; details: s.c., 120 min vs 0 min, somatostatin pretreatment (octreotide) 30 min prior to cpd
Method in brief: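 Wildtype mice aged 8-14 weeks, fasted 2 h, sometimes pre-treated with octreotide 10 mg/kg 30 min before peptide injection. Blood glucose by glucometer at -30, 0, 30, 60, 120, 180, 240 and 360 min; n=4-8/group, mice reused up to 3 times with ≥1 week wash-out.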

in vivo [3] = details: male, C57BL/6, mouse, 10 nmol/kg
From the text: (§1) Selected test peptides (n=8) were profiled for pharmacokinetic (PK) properties in the mouse after single intravenous (i.v.) or subcutaneous (s.c.) dose. A subset (n=4) meeting the acceptance criteria was subsequently profiled in the dog (single i.v. dose) and non-human primate (single i.v. and s.c. dose). […] Low-binding plasticware containers were used during preparation and sample handling to avoid non-specific binding.
After dosing, PK samples were collected from the dorsal metatarsal vein. Blood of each sample was transferred into plastic micro centrifuge tubes containing EDTA-K2, inverted several times for proper mixing of contents and then placed on wet ice. The blood samples were centrifuged at 4° C. to obtain plasma and stored at −75° C. prior to analysis.
(§2) Samples analysis: Samples were analyzed by LC-MS/MS. Calibration standards were injected at the beginning and end of each batch and the determined concentration for each prepared standard was used to construct a calibration curve. Plasma and dose aliquot sample concentrations were determined from the plasma calibration curve.
(§3) Data analysis: Plasma concentration data was analyzed by non-compartmental analysis (NCA) using Phoenix Winnonlin v. 8.3.3.33. Linear trapezoidal rule was used for increasing values and log trapezoidal rule was used for decreasing values, applying uniform weighting for lambda_z calculations. Subcutaneous bioavailability was calculated as the ratio AUC(s.c.)0-inf/AUC(i.v.)0-inf. Reported values (Table 18) represent the mean of the individual estimates.

in vivo [4] = details: male, Beagle, dog, iv, 10 nmol/kg
From the text: as §1
Blood of each sample was transferred into plastic micro centrifuge tubes containing EDTA-K2, inverted several times for proper mixing of contents and then placed on wet ice.
as §2, §3

in vivo [5] = details: male, cynomolgus monkey, 10 nmol/kg
From the text: as §1
Non-human primate: PK was studied in non-naïve male cynomolgus monkeys. After dosing, PK samples were collected from the femoral vein. Blood of each sample was transferred into plastic micro centrifuge tubes containing EDTA-K2, inverted several times for proper mixing of contents and then placed on wet ice. The blood samples were centrifuged under refrigerated (2° C. to 8° C.) conditions within 30 minutes following sample collection to obtain plasma and stored at −60° C. to −90° C.° C. prior to analysis.
as §2, §3

[6] = molecular target: human GLP-1 receptor (hGLP-1R) (Homo sapiens, UniProt P43220); assay: cAMP production (HTRF) in CHO cells expressing hGLP-1R; assay type: cell-based; design: expressed in transfected cells
Chain of human GLP-1 receptor (hGLP-1R) (P43220 24-463): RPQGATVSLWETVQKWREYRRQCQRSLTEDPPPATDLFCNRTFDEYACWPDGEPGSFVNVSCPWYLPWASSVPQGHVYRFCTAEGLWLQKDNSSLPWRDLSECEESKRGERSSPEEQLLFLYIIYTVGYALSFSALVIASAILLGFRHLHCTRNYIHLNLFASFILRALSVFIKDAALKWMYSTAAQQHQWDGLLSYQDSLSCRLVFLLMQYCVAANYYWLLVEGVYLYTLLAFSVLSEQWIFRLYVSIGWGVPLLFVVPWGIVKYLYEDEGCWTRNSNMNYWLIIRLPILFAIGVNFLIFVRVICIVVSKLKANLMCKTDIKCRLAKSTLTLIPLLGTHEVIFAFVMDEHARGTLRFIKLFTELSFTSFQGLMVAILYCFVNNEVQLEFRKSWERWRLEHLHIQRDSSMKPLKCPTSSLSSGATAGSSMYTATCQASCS
Method in brief: (§4)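 Read-out: HTRF cAMP (anti-cAMP cryptate donor, cAMP-d2 acceptor in conjugate/lysis buffer), converted to % Delta F and fitted by 4-parameter logistic for EC50. Cell densities were 1×10^5 cells/mL (hGLP-1R) or 2×10^5 cells/mL (hGCGR). Stimulation lasted 30 min at room temperature.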

[7] = molecular target: human glucagon receptor (hGCGR) (Homo sapiens, UniProt P47871); assay: cAMP production (HTRF) in CHO cells expressing hGCGR; assay type: cell-based; design: expressed in transfected cells; details: Table 7, peptides modified at position 20; cAMP in CHO hGCGR cells; geometric mean; read-out: hGluc-R EC50
Chain of human glucagon receptor (hGCGR) (P47871 26-477): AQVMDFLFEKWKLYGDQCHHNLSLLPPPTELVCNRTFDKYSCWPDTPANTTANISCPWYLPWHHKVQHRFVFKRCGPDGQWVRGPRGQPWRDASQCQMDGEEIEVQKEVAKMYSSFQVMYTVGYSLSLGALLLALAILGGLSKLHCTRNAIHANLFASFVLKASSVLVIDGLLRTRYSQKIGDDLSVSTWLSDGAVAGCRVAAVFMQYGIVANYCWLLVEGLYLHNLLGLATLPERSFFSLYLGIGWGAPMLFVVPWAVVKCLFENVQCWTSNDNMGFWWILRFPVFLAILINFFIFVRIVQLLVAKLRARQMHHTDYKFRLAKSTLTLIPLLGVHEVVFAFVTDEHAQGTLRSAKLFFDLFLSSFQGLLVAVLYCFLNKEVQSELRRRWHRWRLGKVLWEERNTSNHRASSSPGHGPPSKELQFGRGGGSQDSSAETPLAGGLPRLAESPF
Method in brief: as §4

[8] = Proteolytic resistance to FasSSGF containing porcine pancreatic pepsin; assay type: in vitro ADME; details: pig, simulated gastric fluid, FasSSGF with pepsin, 37° C., read-out: % intact peptide over time (min)
Method in brief: (§5)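 Peptide (250 μM stock in FasSSGF) mixed 1:1 with porcine pepsin stock (0.5 mg/mL in FasSSGF) and held at 37° C; samples at 0, 5, 10, 15 and 30 min quenched in ammonium bicarbonate, pH 8. Intact peptide remaining estimated by RP-HPLC peak area, UV 210 nm.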

[9] = molecular target: T1, porcine pancreatic pepsin (Sus scrofa, UniProt P00791); assay: as above; assay type: in vitro ADME; details: FasSSGF with pepsin, 37° C., 0 min
T1 construct: purchased Sigma P7012
T1 sequence (P00791 60-385): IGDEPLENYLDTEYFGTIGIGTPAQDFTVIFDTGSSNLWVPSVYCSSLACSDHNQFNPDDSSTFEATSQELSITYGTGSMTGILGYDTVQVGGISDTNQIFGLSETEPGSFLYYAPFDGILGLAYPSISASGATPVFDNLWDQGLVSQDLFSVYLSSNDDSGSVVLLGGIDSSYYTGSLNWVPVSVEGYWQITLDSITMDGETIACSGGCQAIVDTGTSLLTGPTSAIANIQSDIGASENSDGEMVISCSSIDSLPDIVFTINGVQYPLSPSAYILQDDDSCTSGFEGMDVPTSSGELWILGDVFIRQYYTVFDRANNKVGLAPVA
Method in brief: as §5

Pancreatin = assay: Proteolytic resistance to FasSSIF/Pancreatin; assay type: in vitro ADME; details: FasSSIF/Pancreatin, 37° C., 0 min
Method in brief: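 Peptide (1.0 mg) in pre-warmed FasSSIF, proteolysis started with fresh FasSSIF/USP Pancreatin and held at 37 °C. Aliquots at 0, 5, 10, 15, 30 min quenched in 10% TFA; remaining intact peptide estimated by RP-HPLC peak area, UV 210 nm.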

bioavailability (in vivo [3]): 109%
half-life (in vivo [3]; iv): 9.5 h
half-life (in vivo [4]): 75 h
bioavailability (in vivo [5]): 95%
half-life (in vivo [5]; iv): 100 h
EC50 ([6]; Table 7, peptides modified at position 20, cAMP in CHO hGLP-1R cells, geometric mean, read-out: hGLP-1R EC50): 0.0321 nM
% Relative Potency Ratio ([6]; Table 7, % GLP-1R activity relative to GLP-1 / % GlucR activity relative to glucagon): 1.8
EC50 [7]: 0.0287 nM
Compound: CC[C@H](C)[C@H](NC(=O)C(C)(C)NC(=O)[C@H](CCC(N)=O)NC(=O)[C@@H](NC(=O)[C@](C)(Cc1ccccc1)NC(=O)[C@H](CC(=O)O)NC(=O)[C@H](CCCCNC(=O)COCCOCCNC(=O)COCCOCCNC(=O)CC[C@H](NC(=O)CCCCCCCCCCCCCCCCC(=O)O)C(=O)O)NC(=O)[C@H](C)NC(=O)[C@H](C)NC(=O)[C@H](CCCNC(=N)N)NC(=O)[C@H](CO)NC(=O)[C@H](CC(=O)O)NC(=O)[C@H](CC(C)C)NC(=O)[C@](C)(Cc1ccccc1)NC(=O)[C@H](CCCCN)NC(=O)[C@H](CO)NC(=O)[C@@H](NC(=O)[C@H](CC(=O)O)NC(=O)[C@H](CO)NC(=O)[C@@H](NC(=O)[C@](C)(Cc1ccccc1)NC(=O)[C@H](CO)NC(=O)CNC(=O)[C@H](Cc1c[nH]cn1)NC(=O)C(C)(C)NC(=O)[C@@H](N)Cc1c[nH]cn1)[C@@H](C)O)C(C)C)C(C)C)C(=O)N[C@@H](C)C(=O)N[C@@H](CC(N)=O)C(=O)N[C@H](C(N)=O)[C@@H](C)O [Peptide 224, H-Aib-H-G-S-αMePhe-T-S-D-V—S-K-αMePhe-L-D-S-R-A-A-K (E-(O2Oc)-(O2Oc)-γE-C18diacid) 20-D-αMePhe-V-Q-Aib-I-A-N-T-amide] (H-H[Aib]HGS[αMeF]TSDVSK[αMeF]LDSRAAK([AEEA-AEEA-γGlu-C18 diacid])D[αMeF]VQ[Aib]IANT-NH2; N-terminus assumed)
24 hr % Vehicle Food Intake ([1]; dose 1 nmol/kg): 91.3%
24 hr % Vehicle Food Intake ([1]; dose 3 nmol/kg): 76.6%
24 hr % Vehicle Food Intake ([1]; dose 10 nmol/kg): 66.5% and 72.5%
GLP-1R KO % glucose change 120 min ([2]; 3 nmol/kg): 100.3%
GLP-1R KO % glucose change 120 min ([2]; 10 nmol/kg): 132.3%
WT % glucose change 120 min (wildtype (WT) mice; 3 nmol/kg): −46.3%
WT % glucose change 120 min (wildtype (WT) mice; 10 nmol/kg): −40.0%

Compound: CC[C@H](C)[C@H](NC(=O)[C@H](Cc1ccccc1)NC(=O)[C@H](CCC(=O)O)NC(=O)[C@H](CCCCNC(=O)COCCOCCNC(=O)COCCOCCNC(=O)CC[C@H](NC(=O)CCCCCCCCCCCCCCCCC(=O)O)C(=O)O)NC(=O)[C@H](C)NC(=O)[C@H](C)NC(=O)[C@H](CCC(N)=O)NC(=O)CNC(=O)[C@H](CCC(=O)O)NC(=O)[C@H](CC(C)C)NC(=O)[C@H](Cc1ccc(O)cc1)NC(=O)[C@H](CO)NC(=O)[C@H](CO)NC(=O)[C@@H](NC(=O)[C@H](CC(=O)O)NC(=O)[C@H](CO)NC(=O)[C@@H](NC(=O)[C@H](Cc1ccccc1)NC(=O)[C@@H](NC(=O)CNC(=O)[C@H](CCC(=O)O)NC(=O)C(C)(C)NC(=O)[C@@H](N)Cc1cnc[nH]1)[C@@H](C)O)[C@@H](C)O)C(C)C)C(=O)N[C@@H](C)C(=O)N[C@@H](Cc1c[nH]c2ccccc12)C(=O)N[C@@H](CC(C)C)C(=O)N[C@H](C(=O)N[C@@H](CCCNC(=N)N)C(=O)NCC(=O)N[C@@H](CCCNC(=N)N)C(=O)NCC(=O)O)C(C)C [semaglutide, reference compound]
remaining at 5 min, 125 µM ([8]; 5 min): 15%
remaining at 10 min, 125 µM ([8]; 10 min): 13%
remaining at 0.25 h, 125 µM ([8]; 15 min): 12%
remaining at 0.5 h, 125 µM ([8]; 30 min): 14%
% intact peptide over time (min) [9]: 100%
% intact peptide over time (min) (Pancreatin): 100%
